{"source": "ChEMBL document CHEMBL1201862", "about": "“PubChem BioAssay data set” (2004)", "key": {"[1]": {"target": "Luciferin 4-monooxygenase (Photinus pyralis, UniProt P08659)", "sequence (P08659 whole entry)": "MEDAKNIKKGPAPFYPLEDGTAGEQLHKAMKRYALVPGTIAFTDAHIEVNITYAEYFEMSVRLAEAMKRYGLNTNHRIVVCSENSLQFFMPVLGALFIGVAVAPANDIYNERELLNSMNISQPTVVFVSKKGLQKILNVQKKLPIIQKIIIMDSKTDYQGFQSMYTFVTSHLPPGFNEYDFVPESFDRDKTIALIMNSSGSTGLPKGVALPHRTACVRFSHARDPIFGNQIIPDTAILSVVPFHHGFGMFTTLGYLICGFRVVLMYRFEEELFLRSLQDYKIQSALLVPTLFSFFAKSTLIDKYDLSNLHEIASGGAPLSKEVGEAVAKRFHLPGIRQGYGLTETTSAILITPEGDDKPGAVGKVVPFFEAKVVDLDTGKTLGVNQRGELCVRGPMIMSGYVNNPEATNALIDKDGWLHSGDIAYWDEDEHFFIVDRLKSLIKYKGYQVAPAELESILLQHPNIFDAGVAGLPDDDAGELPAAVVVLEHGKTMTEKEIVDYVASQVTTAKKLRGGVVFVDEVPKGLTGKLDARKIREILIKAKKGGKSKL", "experiment": "Counter Screen for Luciferase-based Assay Positives. [Related pubchem assays: 620, 618, 411 ]"}, "[2]": {"tested_on": "HT-1080", "experiment": "HT1080 cell viability loss – fluorescence readout (AID 620)", "format": "functional, cell-based", "settings": "Homo sapiens"}, "[3]": {"target": "Nonstructural protein 1 (Influenza A virus, UniProt Q194T2)", "sequence (Q194T2 whole entry)": "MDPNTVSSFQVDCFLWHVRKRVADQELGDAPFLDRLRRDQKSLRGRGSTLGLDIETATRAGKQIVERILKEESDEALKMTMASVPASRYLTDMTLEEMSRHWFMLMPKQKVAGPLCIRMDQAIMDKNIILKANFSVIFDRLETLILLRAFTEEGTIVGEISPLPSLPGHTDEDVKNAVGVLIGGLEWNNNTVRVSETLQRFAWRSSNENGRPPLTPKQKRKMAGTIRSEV", "format": "functional, Influenza A virus (A/California/07/2009(H1N1))"}, "[4]": {"target": "Ras and Rab interactor 1/Tyrosine-protein kinase ABL1 (Homo sapiens, UniProt P00519+Q13671)", "sequence (P00519 whole entry)": "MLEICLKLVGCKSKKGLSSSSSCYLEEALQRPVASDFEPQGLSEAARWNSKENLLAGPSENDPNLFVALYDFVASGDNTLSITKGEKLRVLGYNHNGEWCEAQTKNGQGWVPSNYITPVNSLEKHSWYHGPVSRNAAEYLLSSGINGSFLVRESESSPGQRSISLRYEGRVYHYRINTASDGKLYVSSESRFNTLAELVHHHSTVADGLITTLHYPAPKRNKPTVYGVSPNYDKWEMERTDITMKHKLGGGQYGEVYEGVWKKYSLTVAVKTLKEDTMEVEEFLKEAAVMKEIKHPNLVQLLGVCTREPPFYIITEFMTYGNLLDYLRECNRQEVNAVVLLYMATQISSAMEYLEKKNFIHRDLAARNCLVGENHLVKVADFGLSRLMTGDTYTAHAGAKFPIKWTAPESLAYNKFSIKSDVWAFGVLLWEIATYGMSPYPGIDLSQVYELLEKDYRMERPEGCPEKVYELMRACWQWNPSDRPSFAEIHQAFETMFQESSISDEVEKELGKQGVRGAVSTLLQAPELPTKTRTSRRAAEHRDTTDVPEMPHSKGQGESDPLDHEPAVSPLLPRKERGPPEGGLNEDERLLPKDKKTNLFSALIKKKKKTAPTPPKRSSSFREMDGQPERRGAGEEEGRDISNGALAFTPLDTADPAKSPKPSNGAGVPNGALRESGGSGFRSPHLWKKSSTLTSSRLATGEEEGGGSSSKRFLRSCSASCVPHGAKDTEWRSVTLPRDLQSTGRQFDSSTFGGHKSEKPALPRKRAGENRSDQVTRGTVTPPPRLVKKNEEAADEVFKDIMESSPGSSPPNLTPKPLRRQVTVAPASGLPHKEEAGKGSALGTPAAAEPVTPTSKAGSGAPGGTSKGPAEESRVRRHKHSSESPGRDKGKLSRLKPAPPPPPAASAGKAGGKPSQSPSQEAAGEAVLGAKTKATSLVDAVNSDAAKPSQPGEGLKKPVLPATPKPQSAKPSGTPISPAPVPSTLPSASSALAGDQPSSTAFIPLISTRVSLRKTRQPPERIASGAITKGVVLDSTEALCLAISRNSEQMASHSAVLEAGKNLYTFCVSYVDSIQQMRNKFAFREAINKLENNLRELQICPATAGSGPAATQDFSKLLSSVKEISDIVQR", "sequence (Q13671 whole entry)": "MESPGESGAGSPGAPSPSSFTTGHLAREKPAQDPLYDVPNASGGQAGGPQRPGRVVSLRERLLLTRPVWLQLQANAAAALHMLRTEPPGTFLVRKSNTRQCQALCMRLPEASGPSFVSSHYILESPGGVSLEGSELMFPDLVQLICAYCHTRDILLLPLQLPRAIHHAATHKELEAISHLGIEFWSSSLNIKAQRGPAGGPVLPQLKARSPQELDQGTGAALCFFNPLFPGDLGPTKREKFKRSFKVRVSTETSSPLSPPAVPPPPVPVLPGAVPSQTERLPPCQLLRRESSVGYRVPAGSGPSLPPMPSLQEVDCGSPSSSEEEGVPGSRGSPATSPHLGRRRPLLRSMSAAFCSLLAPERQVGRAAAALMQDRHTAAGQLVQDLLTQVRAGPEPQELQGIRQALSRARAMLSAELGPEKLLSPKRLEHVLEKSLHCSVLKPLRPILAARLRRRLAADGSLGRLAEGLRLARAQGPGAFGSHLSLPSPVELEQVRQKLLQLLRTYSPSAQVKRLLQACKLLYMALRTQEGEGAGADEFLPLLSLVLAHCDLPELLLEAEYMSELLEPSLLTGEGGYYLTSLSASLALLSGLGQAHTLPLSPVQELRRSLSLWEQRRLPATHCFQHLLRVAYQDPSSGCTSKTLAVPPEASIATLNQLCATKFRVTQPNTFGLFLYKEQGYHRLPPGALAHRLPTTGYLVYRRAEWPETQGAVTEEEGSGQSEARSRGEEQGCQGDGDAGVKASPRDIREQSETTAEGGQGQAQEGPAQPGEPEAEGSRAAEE", "format": "functional"}, "[5]": {"target": "T1, Histone-lysine N-methyltransferase NSD2 (Homo sapiens, UniProt O96028)", "T1 sequence (O96028 whole entry)": "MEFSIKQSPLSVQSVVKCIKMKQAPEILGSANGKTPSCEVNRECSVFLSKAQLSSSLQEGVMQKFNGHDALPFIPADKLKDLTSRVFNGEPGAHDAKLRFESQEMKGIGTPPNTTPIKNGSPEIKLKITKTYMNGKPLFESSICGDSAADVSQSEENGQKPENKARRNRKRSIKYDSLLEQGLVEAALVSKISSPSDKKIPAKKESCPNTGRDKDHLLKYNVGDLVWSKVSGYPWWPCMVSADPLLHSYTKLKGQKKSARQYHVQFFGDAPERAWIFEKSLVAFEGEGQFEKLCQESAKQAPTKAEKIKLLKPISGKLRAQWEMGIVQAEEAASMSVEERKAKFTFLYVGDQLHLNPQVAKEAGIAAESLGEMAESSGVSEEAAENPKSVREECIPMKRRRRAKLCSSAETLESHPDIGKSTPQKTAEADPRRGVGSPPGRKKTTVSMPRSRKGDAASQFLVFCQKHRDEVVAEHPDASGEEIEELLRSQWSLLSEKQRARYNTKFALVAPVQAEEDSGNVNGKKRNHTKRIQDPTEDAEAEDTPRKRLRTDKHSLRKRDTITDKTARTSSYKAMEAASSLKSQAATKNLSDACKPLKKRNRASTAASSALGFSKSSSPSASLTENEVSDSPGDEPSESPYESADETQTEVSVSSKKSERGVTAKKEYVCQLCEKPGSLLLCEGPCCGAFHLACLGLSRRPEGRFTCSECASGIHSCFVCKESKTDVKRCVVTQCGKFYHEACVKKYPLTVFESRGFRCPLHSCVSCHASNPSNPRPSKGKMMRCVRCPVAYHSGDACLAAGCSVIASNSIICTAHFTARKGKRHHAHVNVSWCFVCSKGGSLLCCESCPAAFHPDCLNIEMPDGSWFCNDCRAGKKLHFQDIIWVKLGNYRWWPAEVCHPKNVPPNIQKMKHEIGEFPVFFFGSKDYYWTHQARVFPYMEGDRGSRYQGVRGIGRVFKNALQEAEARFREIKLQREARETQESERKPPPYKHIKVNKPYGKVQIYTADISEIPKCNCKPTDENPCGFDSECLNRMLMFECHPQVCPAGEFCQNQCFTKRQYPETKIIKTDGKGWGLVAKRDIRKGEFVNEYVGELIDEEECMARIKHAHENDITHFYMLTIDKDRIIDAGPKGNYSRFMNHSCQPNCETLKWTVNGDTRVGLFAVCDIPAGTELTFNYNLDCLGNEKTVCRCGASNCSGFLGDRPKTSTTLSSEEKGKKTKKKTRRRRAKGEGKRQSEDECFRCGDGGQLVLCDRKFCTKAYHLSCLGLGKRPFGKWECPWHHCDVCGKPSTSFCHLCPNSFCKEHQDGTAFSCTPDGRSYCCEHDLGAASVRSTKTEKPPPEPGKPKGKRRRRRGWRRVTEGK", "format": "biochemical"}, "[6]": {"target": "Estrogen receptor beta (Homo sapiens, UniProt Q92731)", "sequence (Q92731 whole entry)": "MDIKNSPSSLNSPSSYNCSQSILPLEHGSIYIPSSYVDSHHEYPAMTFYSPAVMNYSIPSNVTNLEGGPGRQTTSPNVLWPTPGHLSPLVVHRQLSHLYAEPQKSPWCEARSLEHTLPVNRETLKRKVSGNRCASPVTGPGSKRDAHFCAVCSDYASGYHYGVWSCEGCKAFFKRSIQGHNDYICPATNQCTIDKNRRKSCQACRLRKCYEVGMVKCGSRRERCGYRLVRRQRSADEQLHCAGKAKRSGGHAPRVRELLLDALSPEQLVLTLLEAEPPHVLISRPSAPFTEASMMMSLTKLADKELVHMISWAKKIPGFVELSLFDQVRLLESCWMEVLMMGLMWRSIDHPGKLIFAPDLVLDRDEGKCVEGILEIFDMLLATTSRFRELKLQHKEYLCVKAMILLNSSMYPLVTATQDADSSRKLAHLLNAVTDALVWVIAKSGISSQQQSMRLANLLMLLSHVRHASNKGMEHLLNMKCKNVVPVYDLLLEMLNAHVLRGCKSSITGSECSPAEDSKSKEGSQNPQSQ", "experiment": "blockers of SRC-3 recruitment to ERβ – biochemical, ELISA, streptavidin-HRP readout, orthogonal assay, confirmation (AID 1060)"}, "[7]": {"experiment": "Trypanosoma cruzi growth suppression in host cells – NIH3T3 host cells, beta-gal luminescence, confirmation (AID 2044);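 note: intracellular parasites grown in NIH/3T3 mouse fibroblasts as host cells; luminescent beta-galactosidase reporter signal from transgenic T. cruzi replicating inside host cells; inhibitors lower the luminescence signal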", "format": "functional, cell-based"}, "[8]": {"experiment": "NIH3T3 cell viability loss – ATP luminescence, mouse fibroblasts, counter-screen, dose response (AID 2010);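 note: cells exposed to compound for about 90 hours before reading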", "format": "functional, cell-based"}, "[9]": {"experiment": "cells"}}, "note": "Activity calls are given as the source filed them."}
{"smiles": "O=C(CSc1nnc(-c2csc3c2CCCC3)o1)Nc1ccccc1", "values": [{"measurement": "EC50", "setting": "[1]", "result": "4340 nM (active)"}, {"measurement": "EC50", "setting": "[2]", "result": "> 50000 nM (not active)"}]}
{"smiles": "CC1NC(=O)NC1CCCCCC(=O)Nc1ccc(F)c(Cl)c1", "note": "(stereo not drawn)", "values": [{"measurement": "IC50", "setting": "[3]", "result": "1160 nM (active)"}, {"measurement": "IC50", "setting": "[4]", "result": "15 nM (active)"}, {"measurement": "AC50", "setting": "[5]", "result": "343 nM (active)"}]}
{"smiles": "CN1CCN(c2ccc(NC(=O)COc3ccccc3Cl)cc2)CC1", "values": [{"measurement": "IC50", "setting": "[6]", "result": "814 nM (not active)"}]}
{"smiles": "N#Cc1c(NC(=O)CN2CCCCC2)sc2c1CCCC2", "values": [{"measurement": "IC50", "setting": "[6]", "result": "34.3 nM (not active)"}]}
{"smiles": "CC1CN(CCOCCSc2ccc(Cl)cc2)CC(C)O1", "note": "(stereo not drawn)", "values": [{"measurement": "EC50", "setting": "[7]", "result": "< 100 nM (active)"}, {"measurement": "EC50", "setting": "[8]", "result": "> 60000 nM (not active)"}, {"measurement": "EC50", "setting": "[9]", "result": "25 nM (active)"}]}
{"smiles": "O=C(C1=C[C@H](C2CCCCC2)C[C@H](OCc2ccc(CO)cc2)O1)N1CCN(Cc2ccc3c(c2)OCO3)CC1", "values": [{"measurement": "EC50", "setting": "[7]", "result": "< 100 nM (active)"}, {"measurement": "EC50", "setting": "[8]", "result": "> 60000 nM (not active)"}, {"measurement": "EC50", "setting": "[9]", "result": "156 nM (active)"}]}
